Source: patent publication US8778927B2, “Smoothened antagonism for the treatment of hedgehog pathway-related disorders” (Novartis AG, priority 2008, dated 2014)
“And” between values parts separate entries of the source, which are not always exact repeats. Identical values can stand only once. “Also recorded” adds a separate entry of the source.

Experiments:
[1] = test system: Ptch+/−Hic+/− medulloblastoma allograft; test: Ptch+/−Hic+/− medulloblastoma allograft model, continuous dosing; assay type: in vivo, mouse; conditions: for number of sustained complete regressions: dosed day 10 to day 56, day 56
Source text: (§1) Mouse medulloblastoma cells (1.0−5.0×10^6), dissociated directly from tumor fragments originally derived from spontaneously arising medulloblastomas in Ptch+/−p53−/−, Ptch+/−Hic+/− or Ptch+/− mice, were inoculated subcutaneously into the right flank of Harlan nu/nu mice. Treatment was initiated approximately 7-10 days post implantation. Animals were randomized into treatment groups with similar mean tumor volumes that ranged from approximately 250-300 mm3. Tumor volumes (mm3) and body weights (g) were recorded two or three times per week from all groups for analysis. Dose was body weight adjusted at time of dosing. Comparisons between treatment groups was performed using a non-parametric Kruskal-Wallis/Wilcoxon Rank Sum Test.
(§2) Tumors were calipered in two dimensions, and the volumes were calculated using the formula: (length×width2)/2, where length is the longer of the two measurements and width is the shorter one. Percent treatment/control (% T/C) values were calculated using the following formula: % T/C=100×ΔTf−i/ΔCf−i if ΔTf−i>0, % T/T0=100×ΔTf−i/T0 if ΔTf−i<0 (regression). A partial responder (PR) was defined as an animal whose tumor was less than 50% of the initial tumor volume by the end of the study. An animal with no palpable tumor by the end of study is defined as a complete responder (CR).
Treatments started on day 7 post implantation (5 million cells/animal). Compound 1 was administered po at 5 mg/kg bid, 10 mg/kg bid, 20 mg/kg qd, 20 mg/kg bid, 40 mg/kg bid and 80 mg/kg bid for the length of study. Compound 2 was administered at 100 mg/kg bid for the length of study. Vehicle control of Compound 1 was 0.5% methylcellulose 0.5% Tween 80 in water. The initial group size consisted of 8 animals. The vehicle group was taken down 10 days after treatment (tumors greater than 10% of mouse body weight).
Sustained regressions listed in the Table 1 represent number of complete responses still present at the end of study on day 47.
Two additional Smo inhibitors, Compound 3 and Compound 4 were evaluated in follow-up studies in the Ptch+/−Hic+/− model upon continous dosing.

[2] = test system: Ptch+/−p53−/− medulloblastoma allograft; test: Ptch+/−p53−/− medulloblastoma allograft model, continuous dosing; assay type: in vivo, mouse; conditions: 100 mg/kg bid, 25 days, FIG. 1
Source text: as §1
as §2, with “(CR). […]” for “(CR).”

[3] = test system: Ptch+/− medulloblastoma allograft; test: Ptch+/− medulloblastoma allograft model, continuous dosing; assay type: in vivo, mouse; conditions: 100 mg/kg bid, day 48
Source text: as §1, §2
Treatments started on day 7 post implantation (5 million cells/animal). Compound 1 was administered po at 10 mg/kg qd, 20 mg/kg qd, 40 mg/kg qd, 80 mg/kg qd and 160 mg/kg qd for the length of study. Compound 2 was administered at 100 mg/kg bid for the length of study. Vehicle control of Compound 1 was 0.5% methylcellulose 0.5% Tween 80 in water. The initial group size consisted of 8 animals. The vehicle group was taken down 7 days after treatment (tumors greater than 10% of mouse body weight). Similar resistance was seen to that observed with the Ptc+/−Hic+/− model, with a subset of the complete responders growing back and others showing complete regression (Table 2). Sustained regression listed in Table 2 represent number of complete regressions still present at the end of study on day 48.

[4] = test system: sensitive medulloblastoma tumor cells; test: ex-vivo medulloblastoma proliferation assay (3H thymidine, 48 h), sensitive tumor cells; assay type: cell-based; conditions: Mus musculus, Sensitive tumor, Table 3
Procedure: (§3) The effect of statins (e.g., simvastatin, flustatin) on the proliferation of medulloblastoma cells derived from sensitive and resistant Ptch+/− cells was evaluated by using an “ex-vivo medulloblastoma proliferation assay.” Using Ptch+/−p53−/−, Ptch+/−Hic+/− or Ptch+/− medulloblastoma tumors freshly harvested from allografted nude mice, we have developed a short-term 48 h proliferation assay that enables us to assess the in vitro potency of Smo inhibitors. The read-out for proliferation uses incorporation of 3H thymidine. The assay reflects the in vivo sensitivity of tumor cells to Compound 1.
(§4) The effect of PI3K inhibitors (e.g., compounds such as Compound A) on the proliferation of medulloblastoma cells derived from sensitive and resistant medulloblastoma cells was evaluated by using an “ex-vivo medulloblastoma proliferation assay,” as described above.

[5] = test system: Ptch+/−Hic+/− medulloblastoma allograft; test: combination of Smo inhibitor and PI3K inhibitor in Ptch+/−Hic+/− medulloblastoma allograft model; assay type: in vivo, mouse
Source text: Mouse medulloblastoma cells (1.0-5.0×10^6), dissociated directly from tumor fragments originally derived from spontaneously arising medulloblastomas in Ptch+/-p53-/-, Ptch+/-Hic+/- or Ptch+/- mice, were inoculated subcutaneously into the right flank of Harlan nu/nu mice. Treatment was initiated approximately 7-10 days post implantation. Animals were randomized into treatment groups with similar mean tumor volumes that ranged from approximately 250-300 mm3. Tumor volumes (mm3) and body weights (g) were recorded two or three times per week from all groups for analysis. Dose was body weight adjusted at time of dosing. Comparisons between treatment groups was performed using a non-parametric Kruskal-Wallis/Wilcoxon Rank Sum Test. Tumors were calipered in two dimensions, and the volumes were calculated using the formula: (length×width2)/2, where length is the longer of the two measurements and width is the shorter one. […] A partial responder (PR) was defined as an animal whose tumor was less than 50% of the initial tumor volume by the end of the study. An animal with no palpable tumor by the end of study is defined as a complete responder (CR). Next, a combination of Compound 1 and Compound A was explored in the Ptch+/-Hic+/- medulloblastoma allograft model. […] Animals treated with vehicle control and with compound A had to be sacrificed around day 20 and 25, respectively, because their tumor volume reached 1500 mm3. […] Similar results were obtained for animals treated with Compound 1 alone for the first 10 days, followed by single agent treatment with Compound A (data not shown). […] Next, a combination of Compound 1 and Compound B was explored in the Ptch+/-Hic+/- medulloblastoma allograft model. […] Animals treated with vehicle control and with compound B reached the endpoint around day 12 to 15, respectively, because their tumor volume reached 700 mm3.

[6] = test system: resistant medulloblastoma tumor cells; test: ex-vivo medulloblastoma proliferation assay (3H thymidine, 48 h), resistant tumor cells; assay type: cell-based, mouse
Procedure: as §3, §4

[7] = test system: Akt and S6 phosphorylation; test: Western blot of ex-vivo medulloblastoma assay; assay type: cell-based, mouse; conditions: sensitive and resistant cells, FIG. 5
[8] = Mus musculus, Resistant tumor, Table 3

SMILES: COc1cc(OC)cc(C(=O)Nc2ccc(Cl)c(-c3nc4cc(N(C)C)ccc4[nH]3)c2)c1 [Compound 2, N-[4-Chloro-3-(5-dimethylamino-1H-benzoimidazol-2-yl)-phenyl]-3,5-dimethoxy-benzamide, reference compound]
- sustained regressions (complete responses still present at end of study) ([1]; 100 mg/kg bid po, day 47): 0/8
- tumor response on continuous dosing [2]: initially caused regression, followed by tumor regrowth
- sustained regressions (complete regressions still present at end of study) [3]: 0/8

SMILES: Cc1c(Cc2ccccc2)nnc(N2CCN(c3cnc(C(C)(C)O)cn3)[C@H](C)C2)c1C [Compound 3, 2-[(R)-4-(6-Benzyl-4,5-dimethyl-pyridazin-3-yl)-2-methyl-3,4,5,6-tetrahydro-2H-[1,2]bipyrazinyl-5′-yl]-propan-2-ol]
- number of sustained complete regressions ([1]; 40 mg/kg bid): 3/8
- number of sustained complete regressions ([1]; 40 mg/kg qd): 0/8
- number of sustained complete regressions ([1]; 60 mg/kg qd): 0/8
- number of sustained complete regressions ([1]; 80 mg/kg qd): 0/8
- number of sustained complete regressions ([1]; 100 mg/kg qd): 3/8
- tumor response on continuous dosing ([1]; follow-up studies, continuous dosing): initially induced tumor regression followed by tumor regrowth in the presence of compound

SMILES: Nc1cc(C(F)(F)F)c(-c2cc(N3CCOCC3)nc(N3CCOCC3)n2)cn1 [Compound A, 5-(2,6-di-morpholin-4-yl-pyrimidin-4-yl)-4-trifluoromethyl-pyridin-2-ylamine]
- IC50 [4]: 200 nM
- effect on tumor growth ([5]; 60 mg/kg qd, FIG. 6A): only a moderate effect on tumor growth compared to vehicle control
- time to endpoint (tumor volume >1500 mm3) ([5]; 60 mg/kg qd, FIG. 6B): ~25 days
- IC50 [6, 8]: 220 nM
- IC50 ([6]; Mus musculus, ptch+/− Hic+/−, Resistant, Table 4): 300 nM
- IC50 ([6]; ptch+/− Hic+/−, Resistant, Table 4): 170 nM and 150 nM
- inhibition of proliferation, sensitive compared with resistant tumors ([6]; sensitive and resistant tumors): inhibited both sensitive and resistant tumors with similar IC50s
- inhibition of Akt and S6 phosphorylation [7]: inhibits Akt and S6 phosphorylation in both sensitive and resistant cells; also recorded: inhibited Akt and S6 phosphorylation both in sensitive and resistant tumors at similar concentrations

SMILES: Cn1c(=O)n(-c2ccc(C(C)(C)C#N)cc2)c2c3cc(-c4cnc5ccccc5c4)ccc3ncc21 [Compound B, 2-methyl-2-[4-(3-methyl-2-oxo-8-quinolin-3-yl-2,3-dihydro-imidazo[4,5-c]quinolin-1-yl)-phenyl]-propionitrile]
- effect on tumor growth ([5]; 40 mg/kg qd, FIG. 7A): no effect on tumor growth compared to vehicle control
- time to endpoint (tumor volume >700 mm3) ([5]; 40 mg/kg qd, FIG. 7B): ~15 days

SMILES: CCC(C)(C)C(=O)O[C@H]1C[C@@H](C)C=C2C=C[C@H](C)[C@H](CC[C@@H]3C[C@@H](O)CC(=O)O3)[C@H]21 [Simvastatin, reference compound]
- IC50 [4]: 4 nM
- IC50 [6, 8]: 4 nM
